The source of these data is patent US10584117B2, “1,3,4-oxadiazole amide derivative compound as histone deacetylase 6 inhibitor, and pharmaceutical composition containing same” (Chong Kun Dang Pharmaceutical Corp., priority 2015, dated 2020).

pIC50: −log10 of the molar value.

For the assay, the target named is T1, human recombinant HDAC6 (Homo sapiens, UniProt Q9UBN7).
T1 construct: purchased Calbiochem 382180
T1 sequence (Q9UBN7 1-1215): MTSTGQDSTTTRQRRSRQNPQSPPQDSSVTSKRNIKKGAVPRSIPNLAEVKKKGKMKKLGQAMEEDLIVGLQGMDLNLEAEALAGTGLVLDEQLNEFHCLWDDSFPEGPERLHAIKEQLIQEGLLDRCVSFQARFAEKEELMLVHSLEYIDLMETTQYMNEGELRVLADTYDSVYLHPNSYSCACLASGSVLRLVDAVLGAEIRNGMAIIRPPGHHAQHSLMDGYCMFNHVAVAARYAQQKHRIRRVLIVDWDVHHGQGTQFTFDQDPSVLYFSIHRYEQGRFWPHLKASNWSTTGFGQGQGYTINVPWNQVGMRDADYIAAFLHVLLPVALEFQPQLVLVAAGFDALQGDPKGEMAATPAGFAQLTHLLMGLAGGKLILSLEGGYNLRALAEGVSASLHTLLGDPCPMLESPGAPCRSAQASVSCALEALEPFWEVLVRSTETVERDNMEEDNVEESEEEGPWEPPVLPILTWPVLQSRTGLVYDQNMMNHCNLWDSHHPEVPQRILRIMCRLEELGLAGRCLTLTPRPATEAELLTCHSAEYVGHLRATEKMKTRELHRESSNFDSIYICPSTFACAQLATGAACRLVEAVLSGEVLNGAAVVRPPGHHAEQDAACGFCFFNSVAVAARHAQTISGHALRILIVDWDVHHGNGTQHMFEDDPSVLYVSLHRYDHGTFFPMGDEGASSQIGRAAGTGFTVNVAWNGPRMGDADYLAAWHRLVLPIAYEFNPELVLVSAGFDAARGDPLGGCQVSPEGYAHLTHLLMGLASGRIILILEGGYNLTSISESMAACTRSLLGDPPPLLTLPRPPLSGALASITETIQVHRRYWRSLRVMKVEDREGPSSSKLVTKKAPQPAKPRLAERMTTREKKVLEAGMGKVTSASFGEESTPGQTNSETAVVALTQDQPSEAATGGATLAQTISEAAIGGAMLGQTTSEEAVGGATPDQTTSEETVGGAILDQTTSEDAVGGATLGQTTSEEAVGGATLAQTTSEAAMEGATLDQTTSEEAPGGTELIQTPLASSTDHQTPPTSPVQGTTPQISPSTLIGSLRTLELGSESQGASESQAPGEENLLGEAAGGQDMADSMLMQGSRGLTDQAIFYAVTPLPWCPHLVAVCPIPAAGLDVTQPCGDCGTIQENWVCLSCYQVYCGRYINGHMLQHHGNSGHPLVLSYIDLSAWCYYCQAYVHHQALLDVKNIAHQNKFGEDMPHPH
The assay is described as follows: HDAC enzyme activity inhibition assay (HDAC6, fluorimetric kit). The assay is classed as biochemical. To be noted: for HDAC6 selectivity (fold): HDAC6 versus HDAC1; for pIC50: same protocol as the HDAC1 test. Here is the method:
In order to examine the HDAC6 selectivity of the compounds of formula I of the present invention by HDAC1 and HDAC6 enzymatic activity inhibition assays, an experiment was performed using a conventional substance as a control. HDAC enzyme activity was measured using a HDAC Fluorimetric Drug Discovery Kit (BML-AK511, 516) from Enzo Life Science. For the HDAC1 enzyme activity test, human recombinant HDAC1 (BML-SE456) was used as an enzyme source, and Fluor de Lys®-“SIRT1 (BNL-KI177) was used as a substrate. A 5-fold dilution of the compound was seeded into a 96-well plate, and then 0.3 μg of the enzyme and 10 μM of the substrate were added to each well of the plate and allowed to react at 30° C. for 60 minutes. Then, Fluor de Lys®-Developer II (BML-KI176) was added thereto and allowed to react for 30 minutes, after which the fluorescence value (Ex 360, Em 460) was measured using a multi-plate reader (Flexstation 3, Molecular Device). The HDAC6 enzyme was tested using human recombinant HDAC6 (382180) from Calbiochem, according to the same protocol as the HDAC1 enzyme activity test method. Based on the resulting values, each IC50 value was calculated using GraphPad Prism4.0 program.

Take `CCC(=O)N1CCC(C(=O)N(Cc2ccc(-c3nnc(C(F)F)o3)cc2F)c2ccccc2)CC1` [Compound 11212, N-(4-(5-(difluoromethyl)-1,3,4-oxadiazol-2-yl)-2-fluorobenzyl)-N-phenyl-1-propionylpiperidine-4-carboxamide]: the “HDAC6 selectivity (fold)” value is listed as 1124 fold and the pIC50 was 7.05.

As to `CC(C)C(=O)N1CCC(C(=O)N(Cc2ccc(-c3nnc(C(F)F)o3)cc2F)c2ccccc2)CC1` [Compound 11213, N-(4-(5-(difluoromethyl)-1,3,4-oxadiazol-2-yl)-2-fluorobenzyl)-1-isobutyryl-N-phenylpiperidine-4-carboxamide], the “HDAC6 selectivity (fold)” value is reported as 781 fold and the pIC50 is 6.89.

Turning to `O=C(C1CCN(C(=O)C(F)(F)F)CC1)N(Cc1ccc(-c2nnc(C(F)F)o2)cc1F)c1ccccc1` [Compound 11214, N-(4-(5-(difluoromethyl)-1,3,4-oxadiazol-2-yl)-2-fluorobenzyl)-N-phenyl-1-(2,2,2-trifluoroacetyl)piperidine-4-carboxamide], the “HDAC6 selectivity (fold)” value is listed as 714 fold and the pIC50 is 6.85.

In the case of `CS(=O)(=O)N1CCC(C(=O)N(Cc2ccc(-c3nnc(C(F)F)o3)cc2F)c2ccccc2)CC1` [Compound 11215, N-(4-(5-(difluoromethyl)-1,3,4-oxadiazol-2-yl)-2-fluorobenzyl)-1-(methylsulfonyl)-N-phenylpiperidine-4-carboxamide], the “HDAC6 selectivity (fold)” value is listed as 1667 fold and the pIC50 was 7.22.

Turning to `CN1CC(C(=O)N(Cc2ccc(-c3nnc(C(F)(F)F)o3)cc2F)c2ccccc2)C1` [Compound 11232, N-(2-fluoro-4-(5-(trifluoromethyl)-1,3,4-oxadiazol-2-yl)benzyl)-1-methyl-N-phenylazetidine-3-carboxamide], the “HDAC6 selectivity (fold)” value worked out at 1923 fold and the negative-log IC50 (pIC50) is 7.28.

On to `CCN1CC(C(=O)N(Cc2ccc(-c3nnc(C(F)(F)F)o3)cc2F)c2ccccc2)C1` [Compound 11233, 1-ethyl-N-(2-fluoro-4-(5-(trifluoromethyl)-1,3,4-oxadiazol-2-yl)benzyl)-N-phenylazetidine-3-carboxamide], for which the “HDAC6 selectivity (fold)” value is reported as 2703 fold and the pIC50 is 7.43.

For `CC(=O)N1CC(C(=O)N(Cc2ccc(-c3nnc(C(F)(F)F)o3)cc2F)c2ccccc2)C1` [Compound 11234, 1-acetyl-N-(2-fluoro-4-(5-(trifluoromethyl)-1,3,4-oxadiazol-2-yl)benzyl)-N-phenylazetidine-3-carboxamide], the “HDAC6 selectivity (fold)” value is recorded as 1754 fold and the pIC50 is 7.24.

For the compound `CCC(=O)N1CC(C(=O)N(Cc2ccc(-c3nnc(C(F)(F)F)o3)cc2F)c2ccccc2)C1` [Compound 11235, N-(2-fluoro-4-(5-(trifluoromethyl)-1,3,4-oxadiazol-2-yl)benzyl)-N-phenyl-1-propionylazetidine-3-carboxamide], the “HDAC6 selectivity (fold)” value was 1538 fold and the pIC50 is 7.19.

`CC(C)C(=O)N1CC(C(=O)N(Cc2ccc(-c3nnc(C(F)(F)F)o3)cc2F)c2ccccc2)C1` [Compound 11236, N-(2-fluoro-4-(5-(trifluoromethyl)-1,3,4-oxadiazol-2-yl)benzyl)-1-isobutyryl-N-phenylazetidine-3-carboxamide]: the “HDAC6 selectivity (fold)” value is given as 1370 fold and the pIC50 was 7.14.

Turning to `CS(=O)(=O)N1CC(C(=O)N(Cc2ccc(-c3nnc(C(F)(F)F)o3)cc2F)c2ccccc2)C1` [Compound 11237, N-(2-fluoro-4-(5-(trifluoromethyl)-1,3,4-oxadiazol-2-yl)benzyl)-1-(methanesulfonyl)-N-phenylazetidine-3-carboxamide], the “HDAC6 selectivity (fold)” value was 2381 fold and the pIC50 is 7.38.

`CN1CC(C(=O)N(Cc2ccc(-c3nnc(C(F)F)o3)cc2F)c2ccccc2)C1` [Compound 11238, N-(4-(5-(difluoromethyl)-1,3,4-oxadiazol-2-yl)-2-fluorobenzyl)-1-methyl-N-phenylazetidine-3-carboxamide]: the “HDAC6 selectivity (fold)” value is 2222 fold and the pIC50 was 7.35.

Take `CCN1CC(C(=O)N(Cc2ccc(-c3nnc(C(F)F)o3)cc2F)c2ccccc2)C1` [Compound 11239, N-(4-(5-(difluoromethyl)-1,3,4-oxadiazol-2-yl)-2-fluorobenzyl)-1-ethyl-N-phenylazetidine-3-carboxamide]: the “HDAC6 selectivity (fold)” value worked out at 3846 fold and the negative logarithm of the IC50 (pIC50) was 7.59.

Consider `CC(C)N1CC(C(=O)N(Cc2ccc(-c3nnc(C(F)F)o3)cc2F)c2ccccc2)C1` [Compound 11240, N-(4-(5-(difluoromethyl)-1,3,4-oxadiazol-2-yl)-2-fluorobenzyl)-1-isopropyl-N-phenylazetidine-3-carboxamide], for which the “HDAC6 selectivity (fold)” value was 2439 fold and the pIC50 is 7.39.

Turning to `CC(=O)N1CC(C(=O)N(Cc2ccc(-c3nnc(C(F)F)o3)cc2F)c2ccccc2)C1` [Compound 11241, 1-acetyl-N-(4-(5-(difluoromethyl)-1,3,4-oxadiazol-2-yl)-2-fluorobenzyl)-N-phenylazetidine-3-carboxamide], the “HDAC6 selectivity (fold)” value worked out at 2857 fold and the pIC50 was 7.46.

For the compound `CCC(=O)N1CC(C(=O)N(Cc2ccc(-c3nnc(C(F)F)o3)cc2F)c2ccccc2)C1` [Compound 11242, N-(4-(5-(difluoromethyl)-1,3,4-oxadiazol-2-yl)-2-fluorobenzyl)-N-phenyl-1-propionylazetidine-3-carboxamide], the “HDAC6 selectivity (fold)” value stood at 2564 fold and the pIC50 is 7.41.

In the case of `CC(C)C(=O)N1CC(C(=O)N(Cc2ccc(-c3nnc(C(F)F)o3)cc2F)c2ccccc2)C1` [Compound 11243, N-(4-(5-(difluoromethyl)-1,3,4-oxadiazol-2-yl)-2-fluorobenzyl)-1-isobutyryl-N-phenylazetidine-3-carboxamide], the “HDAC6 selectivity (fold)” value stood at 3125 fold and the pIC50 is 7.49.

With `O=C(C1CN(C(=O)C(F)(F)F)C1)N(Cc1ccc(-c2nnc(C(F)F)o2)cc1F)c1ccccc1` [Compound 11244, N-(4-(5-(difluoromethyl)-1,3,4-oxadiazol-2-yl)-2-fluorobenzyl)-N-phenyl-1-(2,2,2-trifluoroacetyl)azetidine-3-carboxamide], the “HDAC6 selectivity (fold)” value was 1587 fold and the pIC50 is 7.20.

Regarding `CS(=O)(=O)N1CC(C(=O)N(Cc2ccc(-c3nnc(C(F)F)o3)cc2F)c2ccccc2)C1` [Compound 11245, N-(4-(5-(difluoromethyl)-1,3,4-oxadiazol-2-yl)-2-fluorobenzyl)-1-(methylsulfonyl)-N-phenylazetidine-3-carboxamide], the “HDAC6 selectivity (fold)” value is recorded as 2128 fold and the pIC50 was 7.33.

With `CC(=O)N(Cc1ccc(-c2nnc(C(F)(F)F)o2)cc1F)c1ccccc1` [Compound 11246, N-(2-fluoro-4-(5-(trifluoromethyl)-1,3,4-oxadiazol-2-yl)benzyl)-N-phenylacetamide], the “HDAC6 selectivity (fold)” value was determined as 758 fold and the pIC50 is 6.88.

Consider `CC(=O)N(Cc1ccc(-c2nnc(C(F)F)o2)cc1F)c1ccccc1` [Compound 11247, N-(4-(5-(difluoromethyl)-1,3,4-oxadiazol-2-yl)-2-fluorobenzyl)-N-phenylacetamide], for which the “HDAC6 selectivity (fold)” value was found to be 1887 fold and the pIC50 is 7.28.

One may read the pIC50 as −log10 of the IC50, conventionally taken in molar units.
